# Test results reported in patent publication US20240390434A1, “PROBIOTIC ENHANCERS AND USES THEREOF” (Blis Technologies Limited, priority 2021, published 2024).
# Columns and labels:
# [1] = system: salA; assay: qPCR relative gene expression in K12 grown on CABCa agar; assay type: cell-based, S. salivarius K12
# Procedure: (§1) Method: CABCa agar plates were prepared either with or without 2.5% w/w raffinose, 0.5% w/w galactose, combined 2.5% w/w raffinose and 0.5% w/w galactose, 0.5% w/w glucose or 2.5% w/w glucose by the addition of 0.5% (w/v) calcium carbonate to solid CAB agar in bottles and then melted by autoclaving at 110° C. for 10 mins. Once cooled, filter sterilised solutions of the saccharides or distilled water were added and mixed and then 20 ml pipetted into petri dishes.
# (§2) A S. salivarius K12 raw ingredient suspension was prepared in PBS containing approx. 1×10^8cfu/ml. […] of this suspension was spread evenly onto control and test agar plates. Plates were incubated at 37° C. with 5% CO2 for approx, 19 hrs.
# (§3) Bacterial growth from each plate was collected using a sterile cotton swab and resuspended into 1 ml PBS in a screw capped tube. The bacterial cells were then pelleted by centrifugation at 13,000 rpm for 1 minute at 4° C. The supernatant was removed, and the cell pellet was resuspended in 1 ml of TRIzol reagent. The bacterial cell suspension was transferred into a 2 ml screw-capped tube containing 0.1 mm Zirconia/silicon beads. These tubes were then vortexed for 5 minutes at the highest speed to bead beat the bacterial cells to lyse them. The tubes were placed on ice for 1 minute and then re-bead beated again on the vortex for 5 minutes. The tubes were then frozen at −20° C.
# (§4) The cDNA samples from K12 raw ingredient grown on the CABCa control plates and CABCa supplemented with the various saccharides were then analysed by qPCR for the levels of gene expression of the following genes: salA, salB, salQ and ureC.
# (§5) 10 μl qPCR reactions were prepared containing 2 μl of cDNA, 5 μl SYBR green master mix, 0.5 μl forward primer, 0.5 μl reverse primer and nuclease free water up to 10 μl. The dilution of cDNA in each qPCR was optimised with each primer set.
# (§6) qPCR method consisted of the following cycles: Hold Stage: 2 mins at 50° C. followed by 10 mins at 95° C.; PCR Stage: 15 secs at 95° C. followed by 1 min at 60° C.; Melt Curve Stage: 15 secs at 95° C. followed by 1 min at 60° C. followed by 15 secs at 95° C.
# (§7) To analyse the relative expression levels the 2^−ΔΔCt method was used to determine the relative fold gene expression level comparing the different sugars to a CABCa plate control. The reference gene used for this analysis was gyrA.
# [2] = system: salQ; assay: as above; assay type: cell-based, S. salivarius K12
# Procedure: as §1, §2, §3, §4, §5, §6, §7
# [3] = system: ureC; assay: as above; assay type: cell-based, S. salivarius K12
# Procedure: as §1, §2, §3, §4, §5, §6, §7
# [4] = system: indicator bacterial test strains; assay: Inhibitory activity of freeze dried raw ingredient powder, K12 and M18 combination; assay type: cell-based; settings: galactose 0.5% w/w; raffinose 2.5% w/w; or combination
# Procedure: Method: The amount of raffinose and galactose used was calculated based on the volume of the area of the producer streak, (which was calculated to be 4.25 g) to allow for the absorption of the saccharides into the agar. Based on this, amount of 0.021 g (i.e. 0.5% w/w galactose of 4.25 g agar volume) of galactose, 0.11 g (i.e 2.5% w/w) of raffinose and the combination of galactose (0.5% w/w) and raffinose (2.5% w/w) (0.13 g total) were weighed into sterile containers. K12 and/or M18 raw ingredient were suspended and diluted with sterile distilled water to a concentration of 1-2×10^6 cfu/100 μl. Then, […] of K12 only, M18 only, and K12±M18 suspensions were spread as a 1 cm streak down the middle of a CABCa agar plate using a sterile spreader. […] Bacterial growth was then removed using a microscope slide, and the pH of the agar in the producer streak area was measured and adjusted to pH 6.5-7.5 using 0.5M sodium carbonate (pH 11) before surface sterilizing the plates with chloroform vapour. […] Zones of inhibition for each test organism were then measured in mm using a ruler. The amount of raffinose and galactose to be used was calculated based on the volume of the area of the producer streak, (which was calculated to be 4.25 g) to allow for absorption into the agar.
# [5] = system: representative microorganisms from skin, dental, oral, ENTR diseases; assay: Dose response assay with dairy free K12 or M18; assay type: cell-based; settings: 2.5% w/w raffinose vs equal weight percentage of saccharides; pH adjusted
# Procedure: CABCa agar plates containing various concentrations of saccharide were prepared according to the methods described in Method 1. Producer strains were transferred from stock agar plates into 900 μL THB using a fresh cotton swab. A plastic spread plater was cut to approximately 1.2 cm width and then dipped into ethanol and left to air dry to ensure sterility. A 100 μL sample of the producer strain suspension was then dispensed onto the agar surface in a straight line running diametrically across the agar surface in (approximately) 20 μL spots. The spots were spaced approximately 1.5 cm apart from each other. The plastic spreader was then used to evenly distribute the spots across the agar surface in a 1.5 cm wide strip. This step was taken to ensure an even producer streak was inoculated onto the agar surface and provided an approximate measure of the initial inoculum concentration. Separate plastic spreaders were used for samples containing different producer strains. The samples were left to soak into the agar surface until there was no visible liquid remaining on the agar surface (approximately 20 minutes). Following producer streak preparations, the deferred antagonism assay protocol was followed as per Method 2. Results were recorded by measuring the size of the zone of inhibition (ZOI) in mm. […]
smiles,measurement,setting,value
"OC[C@H]1O[C@H](OC[C@H]2O[C@H](O[C@]3(CO)O[C@H](CO)[C@@H](O)[C@@H]3O)[C@H](O)[C@@H](O)[C@@H]2O)[C@H](O)[C@@H](O)[C@H]1O [Raffinose, D-(+) Raffinose pentahydrate]",increase in gene expression of salA relative to no sugar control,[1]; 2.5% w/w sugar in CABCa agar,~5000 fold
same,salQ upregulated relative to a no sugar control,[2]; 2.5% w/w sugar in CABCa agar,93 fold
same,upregulation in urease (ureC) expression,[3]; 2.5% w/w sugar in CABCa agar,234 fold
same,inhibitory activity of freeze-dried raw ingredient powder of K12 and M18 combination,[4],induced the inhibitory activity
same,inhibitory action of dairy free K12 or M18,[5],enhanced inhibitory action
"O=C[C@H](O)[C@@H](O)[C@@H](O)[C@H](O)CO [Galactose, D-galactose]",increase in gene expression of salA relative to no sugar control,[1]; 0.5% w/w sugar in CABCa agar,~12000 fold
same,salQ upregulated relative to a no sugar control,[2]; 0.5% w/w sugar in CABCa agar,205 fold
same,upregulation in urease (ureC) expression,[3]; 0.5% w/w sugar in CABCa agar,224 fold
same,inhibitory activity of freeze-dried raw ingredient powder of K12 and M18 combination,[4],induced the inhibitory activity
same,inhibitory action of dairy free K12 or M18,[5],enhanced inhibitory activity
